Active and inactive are the calls of the source.
Assays:
Coagulation factor XII = target: T1, Coagulation factor XII (Homo sapiens, UniProt P00748); type: functional;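 also: activated factor XIIa alpha cleaving a fluorogenic AMC peptide substrate; inhibitor potency from loss of enzyme activity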
T1 sequence (P00748 whole entry): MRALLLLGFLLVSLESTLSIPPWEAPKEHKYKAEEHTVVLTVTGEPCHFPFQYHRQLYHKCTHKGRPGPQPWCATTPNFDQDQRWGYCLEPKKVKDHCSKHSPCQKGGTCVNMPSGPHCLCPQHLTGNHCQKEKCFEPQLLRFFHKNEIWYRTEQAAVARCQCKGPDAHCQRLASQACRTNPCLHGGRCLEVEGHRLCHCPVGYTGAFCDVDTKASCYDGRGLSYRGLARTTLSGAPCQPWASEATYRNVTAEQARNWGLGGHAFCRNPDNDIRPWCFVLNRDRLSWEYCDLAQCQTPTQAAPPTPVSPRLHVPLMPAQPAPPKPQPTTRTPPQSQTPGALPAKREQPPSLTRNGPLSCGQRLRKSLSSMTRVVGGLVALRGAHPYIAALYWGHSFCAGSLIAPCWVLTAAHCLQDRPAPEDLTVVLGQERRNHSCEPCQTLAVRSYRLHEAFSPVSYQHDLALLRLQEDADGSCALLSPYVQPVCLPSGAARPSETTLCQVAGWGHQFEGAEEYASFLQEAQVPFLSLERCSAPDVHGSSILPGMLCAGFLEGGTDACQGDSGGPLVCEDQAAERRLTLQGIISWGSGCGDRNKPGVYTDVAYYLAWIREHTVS

HEK293 [1] = experiment: NOD1 signaling inhibitors, primary screen, cell-based, luminescence, uHTS (AID 1578); type: functional; conditions: Homo sapiens
HEK293 [2] = experiment: cells; type: functional, cell-based; conditions: Homo sapiens
HEK293 [3] = experiment: cells; type: functional, cell-based; conditions: Homo sapiens; remark: listed apart in the source
[4] = target: Nucleotide-binding oligomerization domain-containing protein 2 (Homo sapiens, UniProt Q9HC29); experiment: NOD2 signaling inhibitors, cell-based, luminescence, uHTS, HEK293 (AID 1566); type: functional
HEK293 [5] = experiment: NOD2 signaling inhibitors in MDP-stimulated cells, cell-based, uHTS, luminescence (AID 2001); type: functional; conditions: Homo sapiens
HEK293 [6] = experiment: cells; type: functional, cell-based; conditions: Homo sapiens; remark: listed apart in the source
BJ [7] = experiment: cytotoxicity toward BJ-TERT fibroblasts, dose response, cell-based, RAS-independent, luminescence (AID 1933); type: functional; conditions: Homo sapiens
BJ [8] = experiment: cells; type: functional, cell-based; conditions: Homo sapiens
BJ [9] = experiment: cytotoxicity toward BJ-TERT-LT-ST fibroblasts, dose response, cell-based, RAS-independent, luminescence (AID 1935); type: functional; conditions: Homo sapiens;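 also: BJ fibroblasts immortalized with TERT plus LT and ST oncogenes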
[10] = cytotoxicity toward DRD oncogenic fibroblasts, dose response, cell-based, non-viral oncogenic, luminescence (AID 1934); type: functional; conditions: Homo sapiens
INS1 = experiment: beta cell apoptosis inhibitors, cytokine rescue, dose response, luminescence, retest (AID 449756); type: functional, cell-based; conditions: Rattus norvegicus;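 also: cell death triggered by IL-1 beta plus TNF-alpha plus IFN-gamma mixture; protective hits raise ATP signal compared with cytokine alone wells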
[11] = target: Glucose-6-phosphate 1-dehydrogenase (Homo sapiens, UniProt P11413); experiment: human G6PD enzyme inhibitors, dose response, selectivity assay for P. falciparum G6PD inhibitor project, biochemical, fluorescence (AID 504792); type: functional
[12] = target: T2, Short transient receptor potential channel 4 (Mus musculus, UniProt Q9QUQ5); experiment: mouse TRPC4 channel activators, dose response, cell-based, HEK293 TRPC4/mu-opioid, Fluo-4 calcium (AID 434937); type: functional
T2 sequence (Q9QUQ5 whole entry): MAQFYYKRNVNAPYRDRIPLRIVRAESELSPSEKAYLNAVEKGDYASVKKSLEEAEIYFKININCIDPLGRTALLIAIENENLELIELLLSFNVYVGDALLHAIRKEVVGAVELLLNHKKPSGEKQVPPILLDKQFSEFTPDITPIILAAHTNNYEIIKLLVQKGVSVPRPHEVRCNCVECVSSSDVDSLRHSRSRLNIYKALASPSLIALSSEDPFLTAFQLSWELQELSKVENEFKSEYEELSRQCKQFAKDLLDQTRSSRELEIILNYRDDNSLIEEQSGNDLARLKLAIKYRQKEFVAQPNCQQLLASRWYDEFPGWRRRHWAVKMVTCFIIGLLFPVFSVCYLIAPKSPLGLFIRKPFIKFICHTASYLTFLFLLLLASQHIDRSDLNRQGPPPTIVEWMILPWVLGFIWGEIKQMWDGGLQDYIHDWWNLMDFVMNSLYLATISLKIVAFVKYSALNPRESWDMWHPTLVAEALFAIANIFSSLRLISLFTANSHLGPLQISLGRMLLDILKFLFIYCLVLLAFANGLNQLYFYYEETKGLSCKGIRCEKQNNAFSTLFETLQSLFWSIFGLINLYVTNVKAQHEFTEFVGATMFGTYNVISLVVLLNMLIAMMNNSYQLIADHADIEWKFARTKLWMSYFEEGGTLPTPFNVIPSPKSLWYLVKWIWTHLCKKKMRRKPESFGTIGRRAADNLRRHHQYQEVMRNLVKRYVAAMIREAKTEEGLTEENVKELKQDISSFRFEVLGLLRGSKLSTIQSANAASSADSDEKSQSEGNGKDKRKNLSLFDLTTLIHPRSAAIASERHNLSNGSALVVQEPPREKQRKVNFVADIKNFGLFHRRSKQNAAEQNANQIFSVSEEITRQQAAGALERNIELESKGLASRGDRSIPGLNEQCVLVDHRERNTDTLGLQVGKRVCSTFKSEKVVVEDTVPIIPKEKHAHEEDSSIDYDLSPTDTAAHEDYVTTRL

Trypsin = Trypsin (Sus scrofa, UniProt P00761); experiment: porcine trypsin inhibitors, dose response, selectivity assay for Rce1 protease inhibitor project, biochemical, quenched peptide fluorescence, cherry-pick (AID 488789)
CAAX prenyl protease 2 [13] = target: T3, CAAX prenyl protease 2 (Saccharomyces cerevisiae S288c, UniProt Q03530); type: biochemical
T3 sequence (Q03530 whole entry): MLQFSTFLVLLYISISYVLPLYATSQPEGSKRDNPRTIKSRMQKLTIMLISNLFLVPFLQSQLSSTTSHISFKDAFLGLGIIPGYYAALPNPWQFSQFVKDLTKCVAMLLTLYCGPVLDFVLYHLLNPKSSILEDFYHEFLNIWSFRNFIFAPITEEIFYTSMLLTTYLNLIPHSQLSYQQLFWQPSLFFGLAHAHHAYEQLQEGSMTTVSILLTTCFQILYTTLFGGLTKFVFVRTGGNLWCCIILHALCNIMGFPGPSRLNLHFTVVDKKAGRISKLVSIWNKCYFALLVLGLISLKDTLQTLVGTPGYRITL

CAAX prenyl protease 2 [14] = target: T4, CAAX prenyl protease 2 (Homo sapiens, UniProt Q9Y256); experiment: human Rce1 protease inhibitors, dose response, biochemical, yeast membranes, quenched-peptide fluorescence, cherry-pick (AID 588849)
T4 sequence (Q9Y256 whole entry): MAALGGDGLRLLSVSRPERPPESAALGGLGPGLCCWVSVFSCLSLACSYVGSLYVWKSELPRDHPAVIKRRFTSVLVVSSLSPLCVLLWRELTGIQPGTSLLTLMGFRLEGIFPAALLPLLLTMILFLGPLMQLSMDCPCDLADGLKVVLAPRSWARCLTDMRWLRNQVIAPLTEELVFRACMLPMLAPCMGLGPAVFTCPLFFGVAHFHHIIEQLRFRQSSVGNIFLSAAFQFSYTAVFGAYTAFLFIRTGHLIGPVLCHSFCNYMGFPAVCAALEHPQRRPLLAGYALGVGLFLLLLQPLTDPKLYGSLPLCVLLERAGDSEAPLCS

[15] = Luminescence Cell-Based Dose Response HTS to Identify Activators of Luciferase Translation or Activity in H4 […] Cells. [Related pubchem assays: 1829 (Project Summary), 1814 (Primary HTS)]; type: functional
H4 = experiment: Luminescence Cell-Based Dose Response HTS to Identify Activators of 5'UTR Stem-Loop Driven Prion Protein mRNA Translation in H4 Neuroglioblastoma Cells. [Related pubchem assays: 1829 (Project Summary), 1814 (Primary HTS)]; type: functional; conditions: Homo sapiens
HeLa = experiment: HeLa cell cytotoxicity, dose response, cytotoxicity control for MITF activator project, CellTiter-Glo luminescence, cherry-pick samples (AID 540259); type: functional, cell-based; conditions: Homo sapiens
Tumor necrosis factor = Tumor necrosis factor (Homo sapiens, UniProt P01375); experiment: TNFa-triggered NF-kB activation inhibitors, SAR follow-up, cell-based, revised (AID 2337); type: functional
[16] = target: T5, Nucleotide-binding oligomerization domain-containing protein 1 (Homo sapiens, UniProt Q9Y239); experiment: NOD1 signaling inhibitors, SAR follow-up, revised (AID 2333); type: functional
T5 sequence (Q9Y239 whole entry): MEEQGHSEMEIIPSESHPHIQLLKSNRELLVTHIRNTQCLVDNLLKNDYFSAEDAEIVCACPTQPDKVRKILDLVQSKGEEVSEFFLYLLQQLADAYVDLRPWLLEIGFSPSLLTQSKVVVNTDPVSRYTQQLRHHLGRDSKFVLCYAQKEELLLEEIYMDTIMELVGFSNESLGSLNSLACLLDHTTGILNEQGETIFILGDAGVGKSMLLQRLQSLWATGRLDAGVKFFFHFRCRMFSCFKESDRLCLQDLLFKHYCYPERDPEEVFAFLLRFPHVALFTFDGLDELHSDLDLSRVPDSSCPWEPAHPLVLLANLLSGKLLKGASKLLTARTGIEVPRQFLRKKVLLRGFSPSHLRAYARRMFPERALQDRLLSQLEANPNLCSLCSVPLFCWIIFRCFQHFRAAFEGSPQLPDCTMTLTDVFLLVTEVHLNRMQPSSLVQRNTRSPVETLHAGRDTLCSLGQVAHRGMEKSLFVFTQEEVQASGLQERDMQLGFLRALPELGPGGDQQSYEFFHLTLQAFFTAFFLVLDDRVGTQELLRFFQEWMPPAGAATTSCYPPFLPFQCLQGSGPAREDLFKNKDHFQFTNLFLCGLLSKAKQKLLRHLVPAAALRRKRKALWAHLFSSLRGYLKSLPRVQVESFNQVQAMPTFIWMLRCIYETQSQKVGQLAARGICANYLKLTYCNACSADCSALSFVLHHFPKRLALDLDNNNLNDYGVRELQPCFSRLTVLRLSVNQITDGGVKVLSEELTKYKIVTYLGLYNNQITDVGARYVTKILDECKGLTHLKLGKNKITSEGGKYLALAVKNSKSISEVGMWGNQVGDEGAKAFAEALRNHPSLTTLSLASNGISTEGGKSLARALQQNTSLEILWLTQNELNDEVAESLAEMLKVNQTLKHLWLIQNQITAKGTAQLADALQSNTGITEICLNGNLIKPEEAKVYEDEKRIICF

[17] = cytotoxicity in HEK-293T cells, dose response, cytotoxicity control for TCR NF-kB inhibitor project, luminescence, T-cell screen hits (AID 489026); type: functional, cell-based;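 also: cells exposed to compound about 14 hours before the viability readout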
HEK293 [18] = experiment: cells; conditions: Homo sapiens

Nucleotide-binding oligomerization domain-containing protein 2, sequence (Q9HC29 whole entry, the tested form may be a part): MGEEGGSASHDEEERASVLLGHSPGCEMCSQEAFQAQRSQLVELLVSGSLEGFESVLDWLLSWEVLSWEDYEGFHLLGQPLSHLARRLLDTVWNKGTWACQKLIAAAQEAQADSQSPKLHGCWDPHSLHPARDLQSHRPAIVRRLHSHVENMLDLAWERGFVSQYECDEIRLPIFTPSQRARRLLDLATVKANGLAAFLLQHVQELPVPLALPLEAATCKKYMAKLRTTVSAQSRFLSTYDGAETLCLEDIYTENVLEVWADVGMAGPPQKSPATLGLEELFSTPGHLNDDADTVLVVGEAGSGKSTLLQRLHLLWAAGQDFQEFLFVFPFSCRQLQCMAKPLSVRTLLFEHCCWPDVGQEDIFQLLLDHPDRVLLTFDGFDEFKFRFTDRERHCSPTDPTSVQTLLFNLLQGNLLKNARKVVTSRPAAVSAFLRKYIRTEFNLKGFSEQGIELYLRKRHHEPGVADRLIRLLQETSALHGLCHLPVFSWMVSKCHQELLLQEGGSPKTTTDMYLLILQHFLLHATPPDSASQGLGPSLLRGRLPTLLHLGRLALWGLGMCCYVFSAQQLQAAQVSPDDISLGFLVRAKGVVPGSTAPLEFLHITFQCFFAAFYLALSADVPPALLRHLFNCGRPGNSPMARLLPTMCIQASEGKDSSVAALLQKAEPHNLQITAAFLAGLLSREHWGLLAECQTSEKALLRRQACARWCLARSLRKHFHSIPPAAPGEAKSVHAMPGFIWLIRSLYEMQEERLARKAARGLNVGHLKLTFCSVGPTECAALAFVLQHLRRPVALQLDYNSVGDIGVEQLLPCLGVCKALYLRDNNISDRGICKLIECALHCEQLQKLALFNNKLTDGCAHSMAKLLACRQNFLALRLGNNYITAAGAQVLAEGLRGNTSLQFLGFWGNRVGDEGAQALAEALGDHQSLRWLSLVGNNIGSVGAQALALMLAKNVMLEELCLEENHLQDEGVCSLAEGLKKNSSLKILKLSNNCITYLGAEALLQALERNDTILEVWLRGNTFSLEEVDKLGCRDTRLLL
Glucose-6-phosphate 1-dehydrogenase, sequence (P11413 whole entry): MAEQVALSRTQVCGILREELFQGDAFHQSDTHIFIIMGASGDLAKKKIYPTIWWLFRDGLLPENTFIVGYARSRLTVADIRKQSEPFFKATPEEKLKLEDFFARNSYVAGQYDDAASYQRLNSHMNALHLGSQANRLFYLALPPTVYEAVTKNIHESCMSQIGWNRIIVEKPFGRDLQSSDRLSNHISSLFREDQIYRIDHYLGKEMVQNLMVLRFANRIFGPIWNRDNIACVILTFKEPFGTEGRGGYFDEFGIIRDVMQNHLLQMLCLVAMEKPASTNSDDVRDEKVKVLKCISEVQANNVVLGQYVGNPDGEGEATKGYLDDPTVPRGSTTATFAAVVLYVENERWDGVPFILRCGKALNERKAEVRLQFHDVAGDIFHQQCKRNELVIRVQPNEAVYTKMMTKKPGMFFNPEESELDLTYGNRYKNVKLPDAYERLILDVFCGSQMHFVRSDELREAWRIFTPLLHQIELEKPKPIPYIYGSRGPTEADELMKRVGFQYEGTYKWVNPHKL
Trypsin, sequence (P00761 whole entry): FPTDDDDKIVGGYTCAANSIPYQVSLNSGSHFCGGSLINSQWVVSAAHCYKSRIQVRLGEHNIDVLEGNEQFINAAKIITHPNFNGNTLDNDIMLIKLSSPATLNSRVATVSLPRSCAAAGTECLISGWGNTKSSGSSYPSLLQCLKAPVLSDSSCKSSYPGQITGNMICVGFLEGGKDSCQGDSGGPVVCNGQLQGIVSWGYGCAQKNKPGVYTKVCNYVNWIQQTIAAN
Tumor necrosis factor, sequence (P01375 whole entry, the tested form may be a part): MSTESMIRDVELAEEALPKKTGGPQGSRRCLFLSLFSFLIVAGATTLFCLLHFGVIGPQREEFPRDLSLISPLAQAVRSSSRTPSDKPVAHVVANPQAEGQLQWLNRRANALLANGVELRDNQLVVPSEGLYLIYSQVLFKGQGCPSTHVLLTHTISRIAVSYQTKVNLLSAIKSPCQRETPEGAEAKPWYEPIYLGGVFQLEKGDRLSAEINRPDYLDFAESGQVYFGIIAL

## C=CCn1c(SCC(=O)Nc2cccnc2Cl)nnc1-c1ccc(Cl)cc1
Coagulation factor XII
  IC50: > 50 µM (inactive)

## COc1ccc(-c2c[nH]nc2-c2ccc(OCc3ccccc3F)cc2O)cc1OC
HEK293 [1]
  EC50: 9.16 µM (active)
HEK293 [2]
  IC50: 6.09 µM (active)
HEK293 [3]
  IC50: 11.7 µM (active)
[4]
  EC50: > 20 µM (inactive)
HEK293 [5]
  IC50: 7.5 µM (active)
HEK293 [6]
  IC50: > 20 µM (inactive)

## COc1cc(/C=C2\CC(C(C)(C)C)C/C(=C\c3cc(OC)c(OC)c(OC)c3)C2=O)cc(OC)c1OC (stereo unspecified)
HEK293 [1]
  EC50: 5.25 µM (active)
BJ [7]
  EC50: 4.94 µM (active)
HEK293 [2]
  IC50: 4.76 µM (active)
BJ [8]
  EC50: 12 µM (inconclusive)
HEK293 [3]
  IC50: 18.3 µM (active)
[4]
  EC50: 8.66 µM (active)
HEK293 [5]
  IC50: 4.98 µM (active)
HEK293 [6]
  IC50: > 20 µM (inactive)
BJ [9]
  EC50: 5.18 µM (inconclusive)
[10]
  EC50: 4.23 µM (active)
INS1
  AC50: 5.52 µM (active)

## Cc1cccc(C(=O)Nc2nnc(S(=O)(=O)N3CCCCCC3)s2)c1
[11]
  IC50: > 80 µM (inactive)

## CCc1cc(OCCN(C)C)ccc1Cl
[12]
  EC50: 0.267 µM (active)

## CC(C)OCCCNC(=O)c1c(N)n(CC2CCCO2)c2nc3ccccc3nc12 (stereo unspecified)
Trypsin
  AC50: 5.99 µM (active)
CAAX prenyl protease 2 [13]
  AC50: 15 µM (active)
CAAX prenyl protease 2 [14]
  AC50: 9.35 µM (active)

## CC(=O)Nc1ccc(S(=O)(=O)NCCNc2ccccc2[N+](=O)[O-])cc1
Coagulation factor XII
  IC50: > 50 µM (inactive)

## Cc1ncc(CN2CCCC(C(=O)c3ccc(C(C)(C)C)cc3)C2)s1 (stereo unspecified)
Coagulation factor XII
  IC50: > 50 µM (inactive)

## c1ccc(CSc2ccc(-c3ccc4c(c3)OCO4)nn2)cc1
[15]
  EC50: 4.69 µM (active)
H4
  EC50: > 120 µM (not active)
HeLa
  AC50: 112 µM (active)

## Cc1cccn2c(CNCCc3ccccn3)c(C(=O)N3CCOCC3)nc12
[12]
  EC50: 1.68 µM (active)

## Oc1ccc(-c2nccc(-c3ccccn3)n2)cc1
HeLa
  AC50: 55.2 µM (active)

## O=C(COc1ccc2c(-c3ccccc3)cc(=O)oc2c1)Nc1cccnc1
HEK293 [1]
  EC50: 0.75 µM (active)
HEK293 [2]
  IC50: 2.21 µM (active)
HEK293 [3]
  IC50: 18.7 µM (active)
[4]
  EC50: > 20 µM (inactive)
HEK293 [5]
  IC50: 10.8 µM (inactive)
HEK293 [6]
  IC50: > 20 µM (inactive)
Tumor necrosis factor
  IC50: 4.59 µM (active)
[16]
  IC50: 3.17 µM (active)
[17]
  IC50: > 80 µM (inactive)
HEK293 [18]
  IC50: > 20 µM (inactive)

## C=CCOc1c(Cl)cc(CNc2ccc(N(C)C)cc2)cc1OC
[11]
  IC50: > 80 µM (inactive)

## CCn1c(CN2CCN(Cc3ccc(C)cc3)C(CCO)C2)nc2ccccc21 (stereo unspecified)
[12]
  EC50: 0.668 µM (active)

## O=C(/C=C/c1cn(-c2ccccc2)nc1-c1cccs1)NCCN1CCOCC1
CAAX prenyl protease 2 [13]
  AC50: 10.8 µM (active)
CAAX prenyl protease 2 [14]
  AC50: > 100 µM (inactive)

## CC(=O)c1ccc(N2Cc3ccccc3/C2=N\C(=O)c2cccs2)cc1
HeLa
  AC50: 76.6 µM (active)

## CCn1cc(CN2CCCC(C(=O)Nc3ccc(-c4nc5ccccc5[nH]4)cc3)C2)c(C)n1 (stereo unspecified)
[12]
  EC50: 0.267 µM (active)
